Experimental data reported in PubChem BioAssay (NCI).
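A five-concentration, 48-hour dose response in 96-well plates underlies each endpoint, interpolated linearly between surrounding concentrations. The concentration for 50% growth inhibition is given as GI50. TGI marks complete inhibition of growth.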

What was measured:
Experiment in all cases: NCI tumour cell line growth inhibition, 48 h
[1] = tested on: 786-0 renal
[2] = tested on: A498 renal
[3] = tested on: A549 NSCLC
[4] = tested on: ACHN renal
[5] = tested on: BT-549 breast
[6] = tested on: CAKI-1 renal
[7] = tested on: COLO 205 colon
[8] = tested on: DU-145 prostate
[9] = tested on: EKVX NSCLC
[10] = tested on: HCC-2998 colon
[11] = tested on: HCT-116 colon
[12] = tested on: HCT-15 colon
[13] = tested on: HL-60(TB) leukemia
[14] = tested on: HOP-62 NSCLC
[15] = tested on: HOP-92 NSCLC
[16] = tested on: HS 578T breast
[17] = tested on: HT29 colon
[18] = tested on: IGROV1 ovarian
[19] = tested on: K-562 leukemia
[20] = tested on: KM12 colon
[21] = tested on: LOX IMVI melanoma
[22] = tested on: M14 melanoma
[23] = tested on: MALME-3M melanoma
[24] = tested on: MCF7 breast
[25] = tested on: MDA-MB-231 breast
[26] = tested on: MDA-MB-435
[27] = tested on: NCI-H226 lung
[28] = tested on: NCI-H23 lung
[29] = tested on: NCI-H460 lung
[30] = tested on: NCI-H522 lung
[31] = tested on: NCI/ADR-RES ovarian
[32] = tested on: OVCAR-3 ovarian
[33] = tested on: OVCAR-4 ovarian
[34] = tested on: OVCAR-5 ovarian
[35] = tested on: OVCAR-8 ovarian
[36] = tested on: PC-3 prostate
[37] = tested on: RPMI-8226 leukemia
[38] = tested on: RXF 393 renal
[39] = tested on: SF-268 CNS
[40] = tested on: SF-295 CNS
[41] = tested on: SF-539 CNS
[42] = tested on: SK-MEL-2 melanoma
[43] = tested on: SK-MEL-28 melanoma
[44] = tested on: SK-MEL-5 melanoma
[45] = tested on: SK-OV-3 ovarian
[46] = tested on: SN12C renal
[47] = tested on: SNB-19 CNS
[48] = tested on: SNB-75 CNS
[49] = tested on: SR leukemia
[50] = tested on: SW-620 colon
[51] = tested on: TK-10 renal
[52] = tested on: U251 CNS
[53] = tested on: UACC-257 melanoma
[54] = tested on: UACC-62 melanoma
[55] = tested on: UO-31 renal

## COc1ccc(NC2=C(Cl)C(=O)C(C)=C(C)C2=O)cc1
[1]
  GI50: 18.7 µM
  TGI: 34 µM
[2]
  GI50: 18 µM
  TGI: 47.2 µM
[3]
  GI50: 21.7 µM
  TGI: > 100 µM
[4]
  GI50: 3.94 µM
  TGI: 13.6 µM
[5]
  GI50: 13.3 µM
  TGI: 26.6 µM
[6]
  GI50: 10.4 µM
  TGI: 22.2 µM
[7]
  GI50: 19.2 µM
  TGI: 38.8 µM
[8]
  GI50: 25.2 µM
  TGI: 69.8 µM
[9]
  GI50: 1.79 µM
  TGI: 3.43 µM
[10]
  GI50: 16.8 µM
  TGI: 31.7 µM
[11]
  GI50: 2 µM
  TGI: 4.37 µM
[12]
  GI50: 13.7 µM
  TGI: 27.9 µM
[13]
  GI50: 2.18 µM
  TGI: 5.54 µM
[14]
  GI50: 12.2 µM
  TGI: 25.4 µM
[15]
  GI50: 1.4 µM
  TGI: 2.84 µM
[16]
  GI50: 17.4 µM
  TGI: 72.4 µM
[17]
  GI50: 23.5 µM
  TGI: 54.1 µM
[18]
  GI50: 1.78 µM
  TGI: 3.35 µM
[19]
  GI50: 2.58 µM
  TGI: 9.59 µM
[20]
  GI50: 3.75 µM
  TGI: 44.3 µM
[21]
  GI50: 1.79 µM
  TGI: 3.59 µM
[22]
  GI50: 12 µM
  TGI: 26.6 µM
[23]
  GI50: 14 µM
  TGI: 28.2 µM
[24]
  GI50: 2.35 µM
  TGI: 6.05 µM
[25]
  GI50: 1.99 µM
  TGI: 4.49 µM
[26]
  GI50: 2.74 µM
  TGI: 7.13 µM
[27]
  GI50: 12.3 µM
  TGI: 27.6 µM
[28]
  GI50: 14.8 µM
  TGI: 55 µM
[29]
  GI50: 25.5 µM
  TGI: > 100 µM
[30]
  GI50: 13.3 µM
  TGI: 29.5 µM
[31]
  GI50: 2.89 µM
  TGI: 9.87 µM
[32]
  GI50: 2.12 µM
  TGI: 4.53 µM
[33]
  GI50: 1.71 µM
  TGI: 3.1 µM
[34]
  GI50: 16.8 µM
  TGI: 35.7 µM
[35]
  GI50: 1.84 µM
  TGI: 3.84 µM
[36]
  GI50: 4.51 µM
  TGI: 20.6 µM
[37]
  GI50: 2.23 µM
  TGI: 5.69 µM
[38]
  GI50: 9.13 µM
  TGI: 21.4 µM
[39]
  GI50: 11.4 µM
  TGI: 52.2 µM
[40]
  GI50: 10.3 µM
  TGI: 23.7 µM
[41]
  GI50: 15.5 µM
  TGI: 29.4 µM
[42]
  GI50: 11 µM
  TGI: 24.1 µM
[43]
  GI50: 14.9 µM
  TGI: 28.8 µM
[44]
  GI50: 6.45 µM
  TGI: 19.1 µM
[45]
  GI50: 10.8 µM
  TGI: 22.7 µM
[46]
  GI50: 12.7 µM
  TGI: 26.3 µM
[47]
  GI50: 10.3 µM
  TGI: 22.1 µM
[48]
  GI50: 4.49 µM
  TGI: 19.1 µM
[49]
  GI50: 2.37 µM
  TGI: 8.06 µM
[50]
  GI50: 3.92 µM
  TGI: 18.9 µM
[51]
  GI50: 28.6 µM
  TGI: 52.1 µM
[52]
  GI50: 7.5 µM
  TGI: 21 µM
[53]
  GI50: 1.86 µM
  TGI: 3.96 µM
[54]
  GI50: 10.6 µM
  TGI: 22.7 µM
[55]
  GI50: 11.1 µM
  TGI: 23.1 µM
